These are literature values, as cited in publication PMC11437099 (Nature Communications, 2024).

For data set [1], the system named is patients with type 2 diabetes.
The test system of data set [2] is patients with type 2 diabetes. This is another data set of the same source.

Like-named read-outs stand apart in the source and are kept apart here.

In the case of “dulaglutide: approved GLP-1 analog (Trulicity)”, the “Body weight change from baseline” value in data set [1] (0.75 and 1.5 mg doses at 26 weeks) was −1.0 to −1.5 kg. For the same substance, in data set [2] (0.75 and 1.5 mg at 26 weeks), the “HbA1c change from baseline” value was −1.25 to −1.46% and the “Participants achieving HbA1c <7.0%” value is 63–72%.
Consider “liraglutide: approved GLP-1 analog (Victoza, Saxenda) (HAEGTFTSDVSSYLEGQAAKEFIAWLVRGRG; chains of the INN, looked up)”, for which the “Body weight change (weight loss)” value in data set [1] (1.2 and 1.8 mg at 52 weeks) was −2.05 to −2.45 kg. Also, the “Participants achieving HbA1c <7.0%” value in data set [2] (1.2 and 1.8 mg at 52 weeks) is recorded as 43–51%.
